Source: patent US4051244A, “2,4-Diamino 5-bromo 6-chloro pyrimidines, process for their preparation and use as pharmaceuticals” (Mar-Pha Societe d'Etudes et d'Exploitation de Marques, priority 1975, dated 1977)

Legend:
[1] = LD 50 in the mouse, intravenous (cumulative method of Reed and Muench); details: in vivo
Experimental: (§1) The toxicities of the products according to the invention have been determined on the mouse CD 1 (Charles River) by intravenous and oral methods. The lethal doses 50% (LD 50) are calculated by the cumulative method of Reed J. J. and Muench, H. (Am. J. Hyg. 27, 493, 1938).

[2] = LD 50 in the mouse, oral (cumulative method of Reed and Muench); details: in vivo
Experimental: as §1

[3] = test system: ulcer induced by reserpine; experiment: Protection against the ulcer induced by reserpine in a rat, acute oral; type: in vivo, rat CD (Charles River); details: for antiulcer properties (in words): p.o., reserpine and constraint ulcer; for ED50: po, read-out: DA 50, dose protecting 50% of the animals against the ulcer induced by reserpine in a rat
Excerpt: (§2) The anti-ulcer properties of the products according to the invention are shown in the rat CD (Charles River) by acute oral administration using two techniques.
The first technique studies the activity of the product in connection with the experimental ulcer induced by […] according to Brodie, D. A. (Gastroenterology, 43, 675, 1962). The result is expressed by a DA 50 which represents the dose in mg/kg capable of protecting 50% of the animals against the least trace of ulceration of the mucous gastric system.

[4] = test system: isolated duodenum, spasms induced by acetylcholine; experiment: Spasms of the isolated duodenum of a rat induced by acetylcholine (neurotropic); details: for spasmolytic effects, both musculotropic and neurotropic (in words): acetylcholine and barium chloride
Excerpt: (§3) The anti-spasmodic properties of the compounds according to the invention are shown by use of the technique of Magnus, R. (Ges. Physiol. 102, 123, 1904) in connection with the spasms of the isolated duodenum of a rat caused by either acetylcholine to research an effect of neurotropic type or by barium chloride to research an effect of musculotropic type.
(§4) The results, shown hereunder, are expressed by a CE 50 which represents the concentration of product in mg/1 capable of decreasing by 50% the amplitude of spasms thus induced.

[5] = test system: isolated duodenum, spasms induced by barium chloride; experiment: Spasms of the isolated duodenum of a rat induced by barium chloride (musculotropic)
Excerpt: as §3, §4

[6] = test system: vomitings induced by apomorphine; experiment: Anti-emetic test: vomitings induced by apomorphine in the dog, oral; type: in vivo; details: mongrel dog; for ED50: Canis lupus familiaris, read-out: DE 50, dose diminishing by 50% the number of vomitings induced by apomorphine
Excerpt: The anti-emetic properties of the compounds according to the invention are shown by oral way in the mongrel dog in tests in which vomitings are induced by apomorphine according to Chen, G. and Ensor, C. (J. Pharmacol exp. Ther. 98, 24, 1950).
The results are expressed by a DE 50 which represents the dose of product capable of diminishing by 50% the number of vomitings induced by the agent.

[7] = test system: isolated uterus, spasms induced by serotonine; experiment: Spasms of isolated uterus of rat induced by serotonine; design: species or system rat CD (Charles River); details: for CE 50, spasms of isolated uterus of rat induced by serotonine: in vitro
Excerpt: (§5) The anti-serotonine properties of the compounds according to the invention are shown in vitro and in vivo.
In vitro, the action of the products on the spasms induced by the serotonine in the isolated uterus of a rat (rat CD Charles River) is shown, according to the technique of Fanchamps, A., Doepfner, W., Weidman, H. and Cerletti, (A. Schw. Med. Worsch. 90, 1040, 1960). The results, shown in the table hereunder, are expressed by a CE 50 which represents the concentration in mg/1 of the product capable of decreasing by 50% the amplitude of spasms induced by the serotonine.

[8] = test system: bronchospasms induced by serotonine; experiment: Bronchospasms using serotonine in guinea pigs, intravenous; type: in vivo, Albinos Hartley guinea-pigs; details: Cavia porcellus, i.v., anesthesized guinea-pigs, read-out: DE 50, dose reducing by 50% the amplitude of bronchospasms using serotonine in guinea pigs
Excerpt: as §5
In vivo, the products are applied by intra-venous way to anesthesized Albinos Hartley guinea-pigs. A method originated from Konzett, H. and Rossler, R. is employed (Naunyn. Schmiedeberg's Arch. exp. Path. Pharmakol, 195, 71, 1940). The results, shown in the table hereunder, are expressed by a DE 50 which represents the dose capable of reducing by 50% the amplitude of bronchospasms induced by the administration of serotonine.

[9] = test system: cerebral phosphodiesterases; experiment: Inhibition of the phosphodiesterases of the brain; type: biochemical, rat CD (Charles River)
Excerpt: The phosphodiesterasic activity is shown by the method of Kukovetz E. R. and Poech, G. (Arch. Pharmakol. 1970, 267, 189) by utilizing the supernatant part obtained after centrifugation at 10,000 G of the brain of male rats CD (Charles River).
The inhibiting action of the compounds according to the invention on the cerebral phosphodiesterases has been tested and expressed by an inhibiting concentration 50% (CI 50) in micromoles.

[10] = test system: constraint ulcer; experiment: Protection against constraint ulcer, acute oral; type: in vivo, rat CD (Charles River); details: p.o., rat, 24 hours constraint, read-out: DE 50, dose decreasing by 50% the ulcerating effect (constraint ulcer)
Excerpt: as §2
The second studies the activity of the product in connection with the constraint ulcer according to Rossi, G., Bonfils, S., Leifooche, G. and Lambling A. (C.R. Soc. Biol. 150, 2124, 1956). The result is expressed by a DE 50 which represents the dose of the substance in mg/kg capable of decreasing by 50% the ulcerating effect caused by the 24 hours constraint.

| Compound | LD50 [1] [mg/kg] | LD50 [2] [mg/kg] | antiulcer properties (in words) [3] | ED50 [3] [mg/kg] | CE 50, concentration decreasing by 50% the amplitude of spasms induced by acetyl-choline [4] [mg/L] | CE 50, concentration decreasing by 50% the amplitude of spasms induced by barium chloride [5] [mg/L] | ED50 [6] [mg/kg] | CE 50, spasms of isolated uterus of rat induced by serotonine [7] [mg/L] | ED50 [8] [mg/kg] | inhibiting action on the cerebral phosphodiesterases (in words) ([9]; rat brain supernatant) | IC50 ([9]; supernatant of brain of male rats, 10,000 G, read-out: CI 50, inhibiting concentration 50% on the cerebral phosphodiesterases) [µM] | spasmolytic effects, both musculotropic and neurotropic (in words) [4] | ED50 [10] [mg/kg] | anti-emetic activity (in words) ([6]; apomorphine) | anti-serotonine activity (in words) ([7]; in vitro (rat uterus) and in vivo (guinea pig)) |
| --- | --- | --- | --- | --- | --- | --- | --- | --- | --- | --- | --- | --- | --- | --- | --- |
| CC(C)Nc1nc(N2CCN(C)CC2)nc(Cl)c1Br [Example 2, 2-(N-methylpiperazinyl) 4,isopropylamino 5-bromo 6-chloro pyrimidine] | 83 | 675 | outstanding antiulcer properties | 100 | 5.5 | 3 | > 5 | 0.07 | 0.45 | interesting inhibiting action | 40 | – | – | – | – |
| CN1CCN(c2nc(N)nc(Cl)c2Br)CC1 [Example 6] | 48 | 600 | – | > 100 | 4 | 0.2 | – | 0.05 | – | – | – | very interesting | – | – | – |
| Cc1ccc(N(C)c2nc(Cl)c(Br)c(N3CCN(C)CC3)n2)cc1 [Example 7] | 83 | > 900 | – | > 100 | 1.4 | 0.6 | – | 0.05 | – | – | – | very interesting | – | – | – |
| CC(C)Nc1nc(Cl)c(Br)c(N2CCN(C)CC2)n1 [Example 3] | 86 | 200 | outstanding antiulcer properties | 20 | 1.8 | 0.6 | 1.4 | 0.004 | 0.85 | – | – | very interesting | 12 | very important anti-emetic activity | very high anti-serotonine activity |
| Cc1ccc(N(C)c2nc(Cl)c(Br)c(NCCN(C(C)C)C(C)C)n2)cc1 [Example 9] | – | 675 | – | 300 | – | – | – | 0.33 | – | – | – | – | – | – | – |
| CNc1nc(Cl)c(Br)c(N2CCN(C)CC2)n1 [Example 1, 2-methylamino-4-(N-methylpiperazinyl) 5-bromo 6-chloro pyrimidine] | 55 | 100 | – | – | – | – | 1 | – | 0.08 | – | – | – | – | – | – |
| CCCCCCCNc1nc(Cl)c(Br)c(N2CCN(C)CC2)n1 [Example 4] | – | > 900 | – | > 100 | 1.4 | 1.3 | – | 0.35 | – | – | – | very interesting | – | – | – |
